Experiments:
[1] = Quantitative kinetic studies of Ni^2+ dependent peptide hydrolysis by HPLC; assay type: physicochemical; settings: 1 mM peptide, 1 mM Ni^2+, 45° C., pH 8.2 (20 mM Tris)
Experimental: The title octapeptides were synthesised according to a typical Fmoc protocol (Fields, Meth. Enzymol. Vol. 289). The list of variable BXHZ sequences is given in Table 2, along with 1st order rate constants determined at 45° C., pH 8.2 (20 mM Tris buffer) for 1 mM peptide and Ni^2+ concentrations. […] The substrate and product peaks were identified by MALDI-TOF MS.

[2] = MALDI-TOF screening of Ni^2+ dependent hydrolysis in a combinatorial peptide library; assay type: physicochemical; settings: Ni^2+ 2 mM, pH 8.2, 10 mM Tris, score=24/tm
Procedure, shortened: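 MALDI-TOF read-out: appearance of Ser/Thr-X-His-Z-Lys-Phe-Leu-NH2 product signals, plus loss of substrate signals, checked by eye at 2, 4, 6, 8 h. Conditions: 1 mM peptide mixture, 2 mM Ni2+, 10 mM Tris pH 8.2, 37 or 45 °C.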

[3] = Dependence of rate of hydrolysis of the Ala-Ser bond on buffer and Ni^2+ excess (HPLC); assay type: physicochemical; settings: pH 8.2, 1 mM peptide; for κ ± S.D., 1st order rate constant for the hydrolysis: 25° C., 1.2 mM Ni^2+
Experimental: The title peptide was synthesised according to a standard Fmoc protocol (Fields, Meth. Enzymol. Vol. 289). The pH dependence of the formation of the active complex of the title peptide, represented by the structure (III) in Scheme 2, was determined by potentiometry at 25° C., as described in Krezel et al., Chem. Res. Toxicol. 2003, 16, 855-864. The rate of peptide hydrolysis was studied by HPLC (as in Example 2) in a series of mixed phosphate/Tris/Borax buffers (40/20/20 mM) at 25° C. and pH between 6 and 12.5, with peptide and Ni^2+ concentrations equal to 1 mM. As presented in FIG. 1, the rate of hydrolysis matched the formation of the active complex quantitatively.
The dependence of the rate of hydrolysis on the buffer used was studied at 25° C. separately in 20 mM Tris, Hepes and sodium phosphate buffers, all at pH 8.2, for 1 mM peptide and 1.2 mM Ni^2+.
The dependence of the rate of hydrolysis of the title peptide on the molar ratio of Ni^2+ to peptide was studied at 25° C. and pH 8.2, for 1 mM peptide. The reaction rate constant k was 4.3±0.2 s^−1×10^−5 for the Ni^2+ to peptide molar ratio of 1.2 and 4.72±0.01 s^−1×10^−5 for the Ni^2+ to peptide molar ratio of 5.

proteinase = assay: Activity of SPI2 released from the recombinant polypeptide (Chavira et al.); assay type: biochemical; settings: after Ni^2+ cleavage on Ni-NTA-agarose, 100 mM Hepes pH 8.2, 50° C., 19 hours
Experimental: The recombinant polypeptide from Example 4 (100 μl of a 140 μM solution) was loaded on 200 μl of Ni-NTA-agarose (Invitrogen), according to the manufacturer's instruction, and incubated in 100 mM Hepes buffer, pH 8.2 with 5 mM Ni^2+ at 50° C. without shaking. The incubation buffer (500 μl) was removed after 19 hours. Then the unreacted polypeptide and the cleaved off SRHW-AP-HHHHHH domain were washed from the column with two 400 μl portions of 200 mM imidazole, pH 7.4. The samples were analyzed by HPLC under conditions given in Example 4. FIG. 4 presented chromatograms of the control recombinant polypeptide, incubation buffer and both wash fractions. Masses of polypeptides were measured by ESI-MS. The yield of purified SPI2 was 88%. SPI2 obtained from this procedure was fully active, as determined according to […] et al., Anal. Biochem. 1984, 136, 446-450.

[4] = CH3CO-Gly-Ala-Thr-X-His-Z-Lys-Phe-Leu-NH2 library, 37° C.
[5] = CH3CO-Gly-Ala-Thr-X-His-Z-Lys-Phe-Leu-NH2 library, 45° C.

| Substance | hydrolysis score from MALDI-TOF screening [2, 4] | hydrolysis score from MALDI-TOF screening [2, 5] | also measured |
| --- | --- | --- | --- |
| Ac-GASRHWKFL-NH2 [-SRHW-] |  |  | k ± S.D., 1st order rate constant for the hydrolysis [1]: 28.8 ± 0.8 s^−1 · 10^−5 |
| Ac-GASRHWKFL-NH2 [SRHW, CH3CO-Gly-Ala-Ser-Arg-His-Trp-Lys-Phe-Leu-NH2] |  |  | hydrolysis score from MALDI-TOF screening ([2]; CH3CO-Gly-Ala-Ser-X-His-Z-Lys-Phe-Leu-NH2 library, 37° C.): 12 (a score of 12, if it was seen to be partially hydrolysed at 2 hours); hydrolysis score from MALDI-TOF screening ([2]; CH3CO-Gly-Ala-Ser-X-His-Z-Lys-Phe-Leu-NH2 library, 45° C.): 12 (a score of 12, if it was seen to be partially hydrolysed at 2 hours); κ ± S.D., 1st order rate constant for the hydrolysis ([3]; 20 mM Hepes): 5.9 ± 0.8 s^−1 × 10^−5; κ ± S.D., 1st order rate constant for the hydrolysis ([3]; 20 mM Tris): 4.8 ± 0.5 s^−1 × 10^−5; κ ± S.D., 1st order rate constant for the hydrolysis ([3]; 20 mM phosphate): 0.74 ± 0.09 s^−1 × 10^−5; reaction rate constant k ([3]; Ni^2+ to peptide molar ratio of 1.2, 25° C.): 4.3±0.2 s^−1×10^−5; reaction rate constant k ([3]; Ni^2+ to peptide molar ratio of 5, 25° C.): 4.72±0.01 s^−1×10^−5 |
| Ac-GASWHIKFL-NH2 [-SWHI-] |  |  | k ± S.D., 1st order rate constant for the hydrolysis [1]: 3 ± 1 s^−1 · 10^−5 |
| Ac-GATHHKKFL-NH2 [-THHK-] |  |  | k ± S.D., 1st order rate constant for the hydrolysis [1]: 1.01 ± 0.09 s^−1 · 10^−5 |
| Ac-GATYHDKFL-NH2 [TYHD] | 0 (a score of 0 if no trace of the product of hydrolysis was seen after 8 hours of incubation) | 0 (a score of 0 if no trace of the product of hydrolysis was seen after 8 hours of incubation) |  |
| Ac-GATYHEKFL-NH2 [TYHE] | 0 (a score of 0 if no trace of the product of hydrolysis was seen after 8 hours of incubation) | 0 (a score of 0 if no trace of the product of hydrolysis was seen after 8 hours of incubation) |  |
| Ac-GATYHGKFL-NH2 [TYHG] | 0 (a score of 0 if no trace of the product of hydrolysis was seen after 8 hours of incubation) | 0 (a score of 0 if no trace of the product of hydrolysis was seen after 8 hours of incubation) |  |
| Ac-GATYHHKFL-NH2 [TYHH] | 0 (a score of 0 if no trace of the product of hydrolysis was seen after 8 hours of incubation) | 0 (a score of 0 if no trace of the product of hydrolysis was seen after 8 hours of incubation) |  |
| Ac-GATYHIKFL-NH2 [TYHI] | 0 (a score of 0 if no trace of the product of hydrolysis was seen after 8 hours of incubation) | 0 (a score of 0 if no trace of the product of hydrolysis was seen after 8 hours of incubation) |  |
| Ac-GATYHKKFL-NH2 [TYHK] | 3 (a score of 3 for detection at 8 hours) | 4 (a score of 4 for detection at 6 hours) |  |
| Ac-GATYHLKFL-NH2 [TYHL] | 0 (a score of 0 if no trace of the product of hydrolysis was seen after 8 hours of incubation) | 0 (a score of 0 if no trace of the product of hydrolysis was seen after 8 hours of incubation) |  |
| Ac-GATYHMKFL-NH2 [TYHM] | 0 (a score of 0 if no trace of the product of hydrolysis was seen after 8 hours of incubation) | 0 (a score of 0 if no trace of the product of hydrolysis was seen after 8 hours of incubation) |  |
| Ac-GATYHNKFL-NH2 [TYHN] | 0 (a score of 0 if no trace of the product of hydrolysis was seen after 8 hours of incubation) | 0 (a score of 0 if no trace of the product of hydrolysis was seen after 8 hours of incubation) |  |
| Ac-GATYHPKFL-NH2 [TYHP] | 0 (a score of 0 if no trace of the product of hydrolysis was seen after 8 hours of incubation) | 0 (a score of 0 if no trace of the product of hydrolysis was seen after 8 hours of incubation) |  |
| Ac-GATYHQKFL-NH2 [TYHQ] | 0 (a score of 0 if no trace of the product of hydrolysis was seen after 8 hours of incubation) | 0 (a score of 0 if no trace of the product of hydrolysis was seen after 8 hours of incubation) |  |
| Ac-GATYHRKFL-NH2 [TYHR] | 4 (a score of 4 for detection at 6 hours) | 4 (a score of 4 for detection at 6 hours) |  |
| Ac-GATYHSKFL-NH2 [TYHS] | 0 (a score of 0 if no trace of the product of hydrolysis was seen after 8 hours of incubation) | 0 (a score of 0 if no trace of the product of hydrolysis was seen after 8 hours of incubation) |  |
| Ac-GATYHTKFL-NH2 [TYHT] | 0 (a score of 0 if no trace of the product of hydrolysis was seen after 8 hours of incubation) | 0 (a score of 0 if no trace of the product of hydrolysis was seen after 8 hours of incubation) |  |
| Ac-GATYHVKFL-NH2 [TYHV] | 0 (a score of 0 if no trace of the product of hydrolysis was seen after 8 hours of incubation) | 0 (a score of 0 if no trace of the product of hydrolysis was seen after 8 hours of incubation) |  |
| Ac-GATYHYKFL-NH2 [TYHY] | 0 (a score of 0 if no trace of the product of hydrolysis was seen after 8 hours of incubation) | 0 (a score of 0 if no trace of the product of hydrolysis was seen after 8 hours of incubation) |  |
| SPI2: single domain Kazal type proteinase inhibitor, released from (SPI2)-SRHW-AP-HHHHHH recombinant polypeptide |  |  | activity of SPI2 obtained from cleavage on solid support (proteinase): fully active |

Reference: patent US8969516B2, “Method of hydrolysis of peptide bond” (priority 2006, dated 2015)
